Conditions: in n-hexane

A solubility (mole fraction) (293.15 K) of 0.0025, a solubility (mole fraction) (298.15 K) of 0.0028 and a solubility (mole fraction) (303.15 K) of 0.0031 were found for `CCNC1=NCCC2(CCCCC2)S1` in this work. For the same compound, the solubility (mole fraction) (310.15 K) was 0.0037 and the solubility (mole fraction) (315.15 K) was 0.0043.

A solubility (mole fraction) (293.15 K) of 5.39e-05, a solubility (mole fraction) (298.15 K) of 6.26e-05 and a solubility (mole fraction) (303.15 K) of 6.91e-05 were found for `CNC1=NCCC2(CCCCC2)S1` in this work. It also gave a solubility (mole fraction) (310.15 K) of 8.03e-05 and a solubility (mole fraction) (315.15 K) of 8.67e-05.

A solubility (mole fraction) (293.15 K) of 3.81e-05, a solubility (mole fraction) (298.15 K) of 5.62e-05 and a solubility (mole fraction) (303.15 K) of 7.2e-05 were found for `NC1=NCCC2(CCCCC2)S1` in this work. The solubility (mole fraction) (310.15 K) was 0.000105 and the solubility (mole fraction) (315.15 K) was 0.000129.
